Numbered stars: 1 amine (or outer) side, 2 acyl side, 3 side chain; on linkers, the order of the positions; unused ones are H or OH. Bridge positions count the residues as written; N and C are the ends. Square brackets hold non-standard residues; d marks the D form. Peptide text beside a SMILES is read from it. 1Nal = N[C@@H](Cc1cccc2ccccc12)C(=O)O; TBMB = c1c(C[*:1])cc(C[*:3])cc1C[*:2]; Tle = CC(C)(C)[C@H](N)C(=O)O; βAla = NCCC(=O)O; Sar = CNCC(=O)O
Target: T1, MT1-MMP hemopexin domain (Homo sapiens, UniProt P50281)
T1 construct: residues Cys319-Gly511 from the human gene; His6 (N); made in house; host or cells: HEK293 cells (transient, pEXPR-IBA42 vector)
Experiment: Fluorescence polarisation competition binding assay
Details: not given
Source text: The MT1-MMP hemopexin-like repeats (also known as the MT1-MMP hemopexin domain), residues Cys319-Gly511 from the human gene, were transiently expressed in HEK293 cells as secreted N-terminally His6-tagged soluble protein, using the pEXPR-IBA42 (IBA) expression vector. Following expression, the protein was purified by Nickel-NTA affinity chromatography followed by gel filtration, and purity was checked by SDS-PAGE. Batch to batch variability was also monitored by fluorescence thermal shift experiments in the presence/absence of a hemopexin domain binding bicycle.
Binding affinity was measured using competition assays using Fluorescence Polarisation (anisotropy).
Fluoresceination may be performed on the N-terminal amino group of the peptide, which is separated from the bicycle core sequence by a sarcosine spacer (usually Sar5). This can be done during Fmoc solid phase synthesis or post-synthetically (after cyclisation with TBMB and purification) if the N-terminal amino group is unique to the peptide. Fluoresceination can also be performed on the C-terminus, usually on a Lysine introduced as the first C-terminal residue, which is then separated from the bicycle core sequence by a sarcosine spacer (usually Sar6). Thus, N-terminal tracers can have a molecular format described as Fluo-Gly-Sar5-A(BicycleCoreSequence), and (BicycleCoreSequence)-A-Sar6-K(Fluo) for a C-terminally fluoresceinated construct. Fluorescent tracers used in the Examples are A-(17-69)-A-Sar6-K(Fluo), A-(17-69-07)-A-Sar6-K(Fluo), and A-(17-69-12)-A-Sar6-K(Fluo).
Here, a pre-formed complex of PEX with the fluorescent PEX-binding tracer is titrated with free, non-fluoresceinated bicyclic peptide. Since all 17-69-based peptides are expected to bind at the same site, the titrant will displace the fluorescent tracer from PEX. Dissociation of the complex can be measured quantitatively, and the Kd of the competitor (titrant) to the target protein determined. The advantage of the competition method is that the affinities of non-fluoresceinated bicyclic peptides can be determined accurately and rapidly.
Subsequently, the non-fluorescent competitor bicyclic peptide (usually just the bicycle core sequence) is titrated, such that it displaces the fluorescent tracer from the target protein. The displacement of the tracer is measured and associated with a drop in fluorescence polarisation. The drop in fluorescence polarisation is proportional to the fraction of target protein bound with the non-fluorescent titrant, and thus is a measure of the affinity of titrant to target protein.
The raw data is fit to the analytical solution of the cubic equation that describes the equilibria between fluorescent tracer, titrant, and binding protein. The fit requires the value of the affinity of fluorescent tracer to the target protein, which can be determined separately by direct binding FP experiments (see previous section).

Row | Compound | Kd | Ki
1 | C#CCCC(=O)NCCC(=O)N(C)CC(=O)N(C)CC(=O)N(C)CC(=O)N(C)CC(=O)N(C)CC(=O)N(C)CC(=O)N(C)CC(=O)N(C)CC(=O)N(C)CC(=O)N(C)CC(=O)N[C@@H](C)C(=O)N[C@H]1CNCc2cc3cc(c2)CSC[C@H](NC(=O)[C@@H](C)NC(=O)[C@H](Cc2cccc4ccccc24)NC(=O)[C@H](CCC(=O)O)NC(=O)[C@H](CC(N)=O)NC(=O)[C@@H](C)NC1=O)C(=O)N[C@@H](CCC(=O)O)C(=O)N[C@@H](CC(=O)O)C(=O)N[C@@H](Cc1ccccc1)C(=O)N[C@@H](Cc1ccc(O)cc1)C(=O)N[C@@H](CC(=O)O)C(=O)N[C@@H](C(C)(C)C)C(=O)N[C@H](C(N)=O)CNC3 [17-69-07-N434, (PYA)-(B-Ala)-Sar10-A(Dap)(D-Ala)NE(1Nal)(D-Ala)CEDFYD(tBuGly)(Dap)] | 1.52 nM | 
2 | CC(=O)N[C@@H](C)C(=O)N[C@H]1CNCc2cc3cc(c2)CSC[C@H](NC(=O)[C@@H](C)NC(=O)[C@H](Cc2cccc4ccccc24)NC(=O)[C@H](CCC(=O)O)NC(=O)[C@H](CC(N)=O)NC(=O)[C@@H](C)NC1=O)C(=O)N[C@@H](CCC(=O)O)C(=O)N[C@@H](CC(=O)O)C(=O)N[C@@H](Cc1ccccc1)C(=O)N[C@@H](Cc1ccc(O)cc1)C(=O)N[C@@H](CC(=O)O)C(=O)N[C@@H](C(C)(C)C)C(=O)N[C@H](C(N)=O)CNC3 [17-69-07-N385, Ac-A(Dap)(D-Ala)NE(1Nal)(D-Ala)CEDFYD(tBuGly)(Dap)] | 0.45 nM | 
3 | C[C@H](NC(=O)CN(C)C(=O)CN(C)C(=O)CN(C)C(=O)CN(C)C(=O)CN(C)C(=O)CN(C)C(=O)CN(C)C(=O)CN(C)C(=O)CN(C)C(=O)CN(C)C(=O)CCN)C(=O)N[C@H]1CSCc2cc3cc(c2)CSC[C@H](NC(=O)[C@@H](C)NC(=O)[C@H](Cc2cccc4ccccc24)NC(=O)[C@H](CCC(=O)O)NC(=O)[C@H](CC(N)=O)NC(=O)[C@@H](C)NC1=O)C(=O)N[C@@H](CCC(=O)O)C(=O)N[C@@H](CC(=O)O)C(=O)N[C@@H](Cc1ccccc1)C(=O)N[C@@H](Cc1ccc(O)cc1)C(=O)N[C@@H](CC(=O)O)C(=O)N[C@@H](C(C)(C)C)C(=O)N[C@H](C(N)=O)CSC3 [17-69-07-N241, H-(β-Ala)-Sar10-Ala-Cys-(D-Ala)-Asn-Glu-(1Nal)-(D-Ala)-Cys-Glu-Asp-Phe-Tyr-Asp-(tBuGly)-Cys-NH2, reference compound] (H-[βAla][Sar][Sar][Sar][Sar][Sar][Sar][Sar][Sar][Sar][Sar]AC[dA]NE[1Nal][dA]CEDFYD[Tle]C-NH2; linker 13-19-26 via TBMB) | 0.23 nM | 
4 | C#CCCC(=O)N[C@H](CC(=O)O)C(=O)N[C@H](CC(=O)O)C(=O)N[C@H](CC(=O)O)C(=O)N(C)CC(=O)N(C)CC(=O)N[C@@H](C)C(=O)N[C@H]1CN(C)Cc2cc3cc(c2)CN(C)C[C@H](NC(=O)[C@@H](C)NC(=O)[C@H](Cc2cccc4ccccc24)NC(=O)[C@H](CCC(=O)O)NC(=O)[C@H](CC(N)=O)NC(=O)[C@@H](C)NC1=O)C(=O)N[C@@H](CCC(=O)O)C(=O)N[C@@H](CC(=O)O)C(=O)N[C@@H](Cc1ccccc1)C(=O)N[C@@H](Cc1ccc(O)cc1)C(=O)N[C@@H](CC(=O)O)C(=O)N[C@@H](C(C)(C)C)C(=O)N[C@H](C(N)=O)CSC3 [17-69-07-N473, (PYA)-(D-Asp)3-Sar2-A(Dap(Me))(D-Ala)NE(1Nal)(D-Ala)(Dap(Me))EDFYD(tBuGly)C] |  | 7.3 nM
5 | CC(=O)N[C@@H](C)C(=O)N[C@H]1CN(C)Cc2cc3cc(c2)CN(C)C[C@H](NC(=O)[C@@H](C)NC(=O)[C@H](Cc2cccc4ccccc24)NC(=O)[C@H](CCC(=O)O)NC(=O)[C@H](CC(N)=O)NC(=O)[C@@H](C)NC1=O)C(=O)N[C@@H](CCC(=O)O)C(=O)N[C@@H](CC(=O)O)C(=O)N[C@@H](Cc1ccccc1)C(=O)N[C@@H](Cc1ccc(O)cc1)C(=O)N[C@@H](CC(=O)O)C(=O)N[C@@H](C(C)(C)C)C(=O)N[C@H](C(N)=O)CN(C)C3 [17-69-07-N474, Ac-A(Dap(Me))(D-Ala)NE(1NaI)(D-Ala)(Dap(Me))EDFYD(tBuGly)(Dap(Me))] | 8 nM | 7.5 nM

Same assay, conditions: Binding Affinity Ki (h), human MT1-MMP, bicycle peptides

Row | Compound | Ki
6 | C#CCCC(=O)N[C@@H](C)C(=O)N[C@H]1CNCc2cc3cc(c2)CSC[C@H](NC(=O)[C@@H](C)NC(=O)[C@H](Cc2cccc4ccccc24)NC(=O)[C@H](CCC(=O)O)NC(=O)[C@H](CC(N)=O)NC(=O)[C@@H](C)NC1=O)C(=O)N[C@@H](CCC(=O)O)C(=O)N[C@@H](CC(=O)O)C(=O)N[C@@H](Cc1ccccc1)C(=O)N[C@@H](Cc1ccc(O)cc1)C(=O)N[C@@H](CC(=O)O)C(=O)N[C@@H](C(C)(C)C)C(=O)N[C@H](C(N)=O)CNC3 [17-69-07-N438, PYA-A(Dap)(D-Ala)NE(1Nal)(D-Ala)CEDFYD(tBuGly)(Dap)] | 3.1 nM

Same assay, conditions: human MT1-MMP, bicycle peptides; read-out: Binding Affinity Ki (h)

Row | Compound | Ki
7 | C#CCCC(=O)N[C@@H](C)C(=O)N[C@H]1CN(C)Cc2cc3cc(c2)CN(C)C[C@@H](C(N)=O)NC(=O)[C@H](C(C)(C)C)NC(=O)[C@H](CC(=O)O)NC(=O)[C@H](Cc2ccc(O)cc2)NC(=O)[C@H](Cc2ccccc2)NC(=O)[C@H](CC(=O)O)NC(=O)[C@H](CCC(=O)O)NC(=O)[C@H](CSC3)NC(=O)[C@@H](C)NC(=O)[C@H](Cc2cccc3ccccc23)NC(=O)[C@H](CCC(=O)O)NC(=O)[C@H](CC(N)=O)NC(=O)[C@@H](C)NC1=O [17-69-07-N443, PYA-A(Dap(Me))(D-Ala)NE(1Nal)(D-Ala)CEDFYD(tBuGly)(Dap(Me))] | 3.2 nM
8 | C[C@H](NC(=O)CN(C)C(=O)CN(C)C(=O)CN(C)C(=O)CN(C)C(=O)CN(C)C(=O)CN(C)C(=O)CN(C)C(=O)CN(C)C(=O)CN(C)C(=O)CN(C)C(=O)CCN)C(=O)N[C@H]1CN(C)Cc2cc3cc(c2)CN(C)C[C@@H](C(N)=O)NC(=O)[C@H](C(C)(C)C)NC(=O)[C@H](CC(=O)O)NC(=O)[C@H](Cc2ccc(O)cc2)NC(=O)[C@H](Cc2ccccc2)NC(=O)[C@H](CC(=O)O)NC(=O)[C@H](CCC(=O)O)NC(=O)[C@H](CSC3)NC(=O)[C@@H](C)NC(=O)[C@H](Cc2cccc3ccccc23)NC(=O)[C@H](CCC(=O)O)NC(=O)[C@H](CC(N)=O)NC(=O)[C@@H](C)NC1=O [17-69-07-N451, (B-Ala)-Sar10-A(Dap(Me))(D-Ala)NE(1Nal)(D-Ala)CEDFYD(tBuGly)(Dap(Me))] | 3.7 nM
9 | C#CCCC(=O)N[C@H](CC(=O)O)C(=O)N[C@H](CC(=O)O)C(=O)N[C@H](CC(=O)O)C(=O)N(C)CC(=O)N(C)CC(=O)N[C@@H](C)C(=O)N[C@H]1CN(C)Cc2cc3cc(c2)CN(C)C[C@@H](C(N)=O)NC(=O)[C@H](C(C)(C)C)NC(=O)[C@H](CC(=O)O)NC(=O)[C@H](Cc2ccc(O)cc2)NC(=O)[C@H](Cc2ccccc2)NC(=O)[C@H](CC(=O)O)NC(=O)[C@H](CCC(=O)O)NC(=O)[C@H](CSC3)NC(=O)[C@@H](C)NC(=O)[C@H](Cc2cccc3ccccc23)NC(=O)[C@H](CCC(=O)O)NC(=O)[C@H](CC(N)=O)NC(=O)[C@@H](C)NC1=O [17-69-07-N471, (PYA)-(D-Asp)3-Sar2-A(Dap(Me))(D-Ala)NE(1Nal)(D-Ala)CEDFYD(tBuGly)(Dap(Me))] | 4.6 nM
10 | CC(=O)N[C@H]1CN(C)Cc2cc3cc(c2)CN(C)C[C@@H](C(N)=O)NC(=O)[C@H](C(C)(C)C)NC(=O)[C@H](CC(=O)O)NC(=O)[C@H](Cc2ccc(O)cc2)NC(=O)[C@H](Cc2ccccc2)NC(=O)[C@H](CC(=O)O)NC(=O)[C@H](CCC(=O)O)NC(=O)[C@H](CSC3)NC(=O)[C@@H](C)NC(=O)[C@H](Cc2cccc3ccccc23)NC(=O)[C@H](CCC(=O)O)NC(=O)[C@H](CC(N)=O)NC(=O)[C@@H](C)NC1=O [17-69-07-N461, Ac(Dap(Me))(D-Ala)NE(1Nal)(D-Ala)CEDFYD(tBuGly)(Dap(Me))] | 6 nM
11 | C[C@H](N)C(=O)N[C@H]1CN(C)Cc2cc3cc(c2)CN(C)C[C@@H](C(N)=O)NC(=O)[C@H](C(C)(C)C)NC(=O)[C@H](CC(=O)O)NC(=O)[C@H](Cc2ccc(O)cc2)NC(=O)[C@H](Cc2ccccc2)NC(=O)[C@H](CC(=O)O)NC(=O)[C@H](CCC(=O)O)NC(=O)[C@H](CSC3)NC(=O)[C@@H](C)NC(=O)[C@H](Cc2cccc3ccccc23)NC(=O)[C@H](CCC(=O)O)NC(=O)[C@H](CC(N)=O)NC(=O)[C@@H](C)NC1=O [17-69-07-N452, A(Dap(Me))(D-Ala)NE(1Nal)(D-Ala)CEDFYD(tBuGly)(Dap(Me))] | 4 nM
